{"source": "patent US10913068B2", "about": "“Testing device, microfluidic chip and nucleic acid testing method” (Nanyang Technological University, priority 2015, dated 2021)", "key": {"ALT mRNA [1]": {"tested_on": "ALT mRNA", "settings": "mouse liver tissue", "procedure": "(§1) A short-term (5 days) preclinical drug toxicity experiment was performed on common black laboratory mice (Strain name: C57BL/6J; Age: 5-7 weeks). All experiments were performed in accordance with the National Institutes of Health Guide for the care and use of laboratory animals (NIH Publications No. 80-23, revised 1996) and conducted after approval by the Institutional Animal Care and Use Committee of Houston Methodist Research Institute (HMRI).\n(§2) A total of eight mice were divided into two equal groups, with one mouse in each group designated as the control and the remaining three subjected to drug treatment. […] The drug was administered through intraperitoneal route, with the first group having a single dose administered on the 1st day only; and the second group having 3 doses administered on the 1st, 3rd and 5th days. The animals were subsequently euthanized following standard carbon dioxide anaesthesia procedure on the 5th day after final drug administration. The mouse liver tissues were thereafter silated, and cut into equal small pieces (˜20-30 mg) and stored in RNAlater RNA Stabilization Reagent (QIAGEN®, USA) at 4° C. to prevent RNA degradation.\n(§3) A liver tissue sample, weighing approximately 20-30 mg, was loaded directly into the tissue lysis chamber. The tissue sample was secured within the chamber when the tissue microhomogenizer attachment was fitted into the opening of the lysis chamber. Subsequently, 250 μL Lysis/Binding buffer was loaded into another 250 μL glass syringe (see FIG. 16, Sample Inlet), and actuated into the tissue lysis chamber at a flow rate of 200 μL/min. For tissue lysis, the microhomogenizer attachment was activated for ˜1 min to allow the liver tissue to be shredded and homogenized. After the completion of tissue lysis, the unwanted tissue debris and supernatant were removed by the micro-pillars as the homogenized tissue lysate was actuated into the mixing chamber, where the lysate was mixed with the microbeads for ˜8 mins to allow for mRNA binding.\n(§4) The purified mRNA from each mouse liver tissue sample was collected in an EPPENDORF® tube preloaded with an RT-PCR master mix. To validate the efficacy of our sample preparation microfluidic chip, purified mRNA solutions extracted using our microfluidic chip was tested for their purity using the NANODROP™ 2000 (THERMOSCIENTIFIC®, Singapore), to ensure an A260/280 ratio of ˜2.0-2.2 before proceeding to the subsequent downstream applications of RT-PCR and nucleic acid detection.\n(§5) Once the purified mRNA had been extracted from the liver tissue samples, 30 μL of the purified mRNA extract (i.e. elution buffer with the microbeads) was collected in an EPPENDORF® tube containing the following RT-PCR composition: 75 μL 2× SYBR Green RT-PCR reaction mix (BIORAD®, Singapore), 3.0 μL iSCRIPT™ One-Step RT-PCR reverse transcriptase (BIORAD®, Singapore) and 42 μL nuclease-free water. This 150 μL final RT-PCR assay was subsequently transferred from the EPPENDORF® tube into a 250 μL HAMILTON® glass syringe connected to the RT-PCR microfluidic chip via a 1/32″ OD tubing.\n(§6) The chip-compatible thermal cycler was based on the open-source OpenPCR® (Chai Biotechnologies, USA) platform, using a custom-designed aluminium metal block for contact-based thermal cycling and an ARDUINO® microcontroller for precise temperature control (see FIG. 17—schematic diagram 1700 illustrating the multiplex microfluidic real-time RT-PCR setup). […]"}, "AST mRNA [2]": {"tested_on": "AST mRNA", "settings": "mouse liver tissue", "procedure": "as §1, §2, §3, §4, §5, §6"}, "[3]": {"tested_on": "β-actin mRNA (housekeeping gene)", "settings": "after 1× and 3× drug dosage (200 mg/kg body wt.); mouse liver tissue", "procedure": "as §1, §2, §3, §4, §5, §6"}, "ALT mRNA [4]": {"tested_on": "ALT mRNA", "settings": "for mean Ct (± S.D.), ALT: 3× dosage", "procedure": "as §1, §2, §5\n(§7) The chip-compatible thermal cycler was based on the open-source OpenPCR® (Chai Biotechnologies, USA) platform, using a custom-designed aluminium metal block for contact-based thermal cycling and an ARDUINO® microcontroller for precise temperature control (see FIG. 17—schematic diagram 1700 illustrating the multiplex microfluidic real-time RT-PCR setup).\n(§8) To provide a benchmark reference to the chip disclosed herein, the same RT-PCR assays (with addition of forward/reverse primers at 0.5 μM concentration) were amplified separately in EPPENDORF® tubes on a conventional CFX96 TOUCH™ Real-Time PCR Detection System (BIORAD®, USA).\n(§9) The thermal cycling process was as follows: 70° C. for 2 mins to allow dehybridization of the captured mRNA from the microbeads, followed by 50° C. for 10 minutes for reverse transcription, subsequently with an initial denaturation step of 95° C. for 5 mins and finally 35 cycles of PCR, comprising two stages: denaturation at 95° C. for 10 s and annealing/extension at 55° C. for 30 s.\n(§10) To enable simultaneous fluorescent detection of amplified cDNA for a fully-quantitative methodology, the inventors developed an image capturing system embodying a camera module with blue excitation LEDs to be mounted on the chip-compatible thermal cycler disclosed herein (FIG. 19—RT-PCR and fluorescent detection setup 1900). A 3MP CMOS camera with mounted 550 nm longpass optical filter (ISLAND OPTICAL SYSTEMS®, Singapore) was fitted onto a black opaque acrylic frame with a 470 nm blue LED module (IORODEO®, USA) to provide an excitation source for the SYBR Green 1 fluorescent dye present in the RT-PCR assay. The blue LED module was affixed at an angle of ˜45° to the plane of the microfluidic chip to minimize excitation light interference on the captured light pathway of the camera unit."}, "AST mRNA [5]": {"tested_on": "AST mRNA", "settings": "for mean Ct (± S.D.), AST: 3× dosage", "procedure": "as §1, §2, §5, §7, §8, §9, §10"}, "[6]": {"tested_on": "β-actin mRNA (housekeeping gene)", "settings": "3× dosage; conventional qPCR machine CFX96 Touch; control 22.93 ± 0.11", "procedure": "as §1, §2, §5, §7, §8, §9, §10"}, "[7]": {"settings": "1× drug dosage (200 mg/kg body wt., intraperitoneal, day 1 only)"}, "[8]": {"settings": "3× drug dosage (200 mg/kg body wt., intraperitoneal, days 1, 3, 5), normalized to untreated control"}, "[9]": {"settings": "3× dosage vs untreated control, Livak ΔΔCt method, normalized to β-actin, microfluidic data"}}, "note": "Values joined by “and” are separate entries in the source; they are usually repeats but may differ in a detail not shown here. Equal values may be shown once. Read-outs that look alike come from different tables or passages of the source.", "data": [{"smiles": "O=P1(N(CCCl)CCCl)NCCCO1", "note": "(stereo not drawn) [cyclophosphamide]", "values": [{"measurement": "difference in final cDNA concentration (ALT) compared to untreated control", "setting": "ALT mRNA [1]; [7]", "value": "no significant difference"}, {"measurement": "increase in final cDNA concentration for ALT", "setting": "ALT mRNA [1]; [8]", "value": 33.3, "unit": "%"}, {"measurement": "difference in final cDNA concentration (AST) compared to untreated control", "setting": "AST mRNA [2]; [7]", "value": "no significant difference"}, {"measurement": "increase in final cDNA concentration for AST", "setting": "AST mRNA [2]; [8]", "value": 58.7, "unit": "%"}, {"measurement": "β-actin mRNA expression levels", "setting": "[3]", "value": "remained relatively unchanged"}, {"measurement": "normalized fold change (up-regulation) for ALT", "setting": "ALT mRNA [4]; [9]", "value": 1.31, "unit": "fold"}, {"measurement": "mean Ct (± S.D.), ALT", "setting": "ALT mRNA [4]; Microfluidic Chip, control 28.8 ± 0.2", "value": "28.5 and 28.5 ± 0.3"}, {"measurement": "mean Ct (± S.D.), ALT", "setting": "ALT mRNA [4]; conventional qPCR machine CFX96 Touch, control 27.28 ± 0.10", "value": "26.75 ± 0.07"}, {"measurement": "normalized fold change (up-regulation) for AST", "setting": "AST mRNA [5]; [9]", "value": 1.62, "unit": "fold"}, {"measurement": "mean Ct (± S.D.), AST", "setting": "AST mRNA [5]; Microfluidic Chip, control 20.5 ± 0.2", "value": "19.9 and 19.9 ± 0.2"}, {"measurement": "mean Ct (± S.D.), AST", "setting": "AST mRNA [5]; conventional qPCR machine CFX96 Touch, control 20.07 ± 0.02", "value": "19.34 ± 0.05"}, {"measurement": "mean Ct (± S.D.), β-actin", "setting": "[6]", "value": "23.02 ± 0.08"}]}]}
